# According to patent US20030100494A1, “Nerve protective drugs” (priority 1999, published 2003):
# Non-standard residues stand in square brackets, D forms with d. Residues, ends and D or L forms follow the SMILES beside them. dTrp(2-Me) = Cc1[nH]c2ccccc2c1C[C@@H](N)C(=O)O; d2Nal = N[C@H](Cc1ccc2ccccc2c1)C(=O)O
# Key:
# [1] = influence on blood pressure and heart rate; settings: in vivo
# [2] = system: rat ischemia-reperfusion cerebral infarction models; assay: rat ischemia-reperfusion cerebral infarction model after transient obstruction of middle cerebral artery; format: in vivo
# Experimental: Preventive and therapeutic effect of KP-102 in rat ischemia-reperfusion cerebral infarction models after transient obstruction of middle cerebral artery
# The effect of the growth hormone secretion promoting substance was evaluated using ischemia-reperfusion cerebral infarction models, which are general pathological models of diseases involving degeneration or death of nerve cells, such as cerebral ischemia, cerebral infarction and cerebral edema. KP-102 was used as a typical example of the growth hormone secretion promoting substance.
# KP-102 (synthetic product) was dissolved in physiological saline (JP) to a concentration of 24 μg/ml. Other reagents used were halothane (JP: Takeda Chem. Ind.), triphenyltetrazolium chloride (TTC, Nacalai tesque), Dulbecco PBS(−) (Nissui Pharmaceutical) and low viscosity dental impression silicone (XANTOPRENRL, imported by Hereus Dental Material, Osaka). A 1% TTC solution was prepared by dissolving TTC in an isotonic phosphate buffer solution (pH 7.4) which had been prepared by dissolving PBS(−) powder in distilled water.
# Male Wistar rats (Charles River Japan, INC.), 9 weeks old and weighing about 300 g, were used as experimental animals.
# Obstruction of the middle cerebral artery was performed in accordance with the method of Koizumi et al. (Jpn. J. Stroke (1986)8:1-8) and the method of Longa et al. (Stroke (1989)20:84-91). Anesthesia was performed with 2% halothane in a 30% oxygen/70% nitrous oxide mixed gas. A cannula for administration of a test material had been inserted into the right femoral vein, and the other end of the cannula delivered to the poll. After several hours or more, the animals were anesthetized again, and set in a supine position. A median incision of the neck was made, and connective tissues around the right common carotid artery, the internal carotid artery, and the external carotid artery were ablated. The distal end of the external carotid artery and the external carotid artery were ligated with a suture, and blood flow in the common carotid artery was blocked with a clip. The following procedure was performed, with measures for prevention of bleeding being taken: A small incision was made in the external carotid artery, and a plug comprising a 5 mm front end of a surgical 4-0 nylon thread coated with dental silicone was inserted toward the internal carotid artery as far as a site where a slight resistance was felt. As a result, the middle cerebral artery (hereinafter referred to as MCA) was occluded, at its point of origin, with the plug. The plug was fixed in the internal carotid artery with a clip. The incision wound was closed and anesthesia was stopped to awake the animals. Anesthesia was performed again 70 minutes after MCA occlusion, the plug was detached 75 minutes later to restore blood flow in MCA, and the end of the external carotid artery proximal to the incision site was closed for prevention of bleeding. Blood flow in the common carotid artery was restored 10 minutes later. The incision site of the skin was closed with a Michel needle, and the animals were recovered from anesthesia.
# The cannula for administration of the test material was connected to a free moving device (TCS2-21, Tsumura). […]
# [3] = system: Rat hippocampal nerve cells; assay: ionomycin-induced death of cultured rat hippocampal nerve cells (WST-8 cell survival rate); settings: for inhibition of cell death induced by ionomycin at a single concentration: each 0.1 μM, 3 μM ionomycin, FIGS. 6a and 6b
# Experimental: The solution was used after dilution to predetermined concentrations with distilled water for injection (JP, Otsuka Pharmaceutical) containing 1 mg/mL of bovine serum albumin (SIGMA). Rat type ghrelin (Peptide Institute) was used after dilution to predetermined concentrations with water for injection containing 1 mg/mL of bovine serum albumin. Other reagents used were L-15 culture medium, D-MEM/F-12 culture medium, MEM culture medium, Neuro Basal culture medium, B-27 supplement, horse serum, newborn calf serum, L-glutamine (all of the foregoing products of GIBCO), L-cysteine, ionomycin, calf serum albumin, DNase I (all of the foregoing products of SIGMA), glucose, viable cell count determination reagent SF (all of the foregoing products of Nacalai tesque), and papain (Worthington Biochemical).
# Animals used were fetal rats on the 20th fetal day gestated in Wistar/ST definitively pregnant rats (15-18 days pregnant, Japan SLC).
# Rat hippocampal nerve cells were isolated in accordance with the method of Hatanaka et al. (Hatanaka, H. and Tsukui, H., Dev. Brain. Res. 30(1986)47). Brains were removed from Wistar/ST fetal rats (20 fetal days), and soaked in cold L-15 medium. The meninges were ablated under microscope, and the hippocampus was cut out. Hippocampal tissue was transferred into a test tube containing the L-15 medium, and the test tube was centrifuged for 3 minutes at 700 rpm. Then, the supernatant was removed, and phosphate buffer (pH 7.2) containing papain (0.5 mg/mL), bovine serum albumin (0.2 mg/mL), cysteine (0.2 mg/mL), glucose (5 mg/mL) and DNase I (0.01%) was added, followed by incubating the mixture for 15 minutes at 37° C. Then, horse serum was added, and the mixture was centrifuged for 3 minutes at 700 rpm. Then, the supernatant was removed, D-MEM/F-12 medium was added, and the cells were dispersed by pipetting. After centrifugation for 5 minutes at 700 rpm, the dispersed cells were redispersed in D-MEM/F-12 medium containing 5% newborn calf serum and 5% horse serum, and inoculated in a polyethyleneimine-coated 48-well culture plate (Nunc) at a rate of 4×10^5 cells/cm^2. The cells were cultured in a culture incubator (37° C., 5% CO2-95% air). On the 2nd day of culturing, the culture medium was replaced by Neuro Basal medium containing 2 mM of glutamine and B-27 supplement. Then, the medium was replaced at intervals of 4 days.
# Cells on the 14th day of culturing were used in experiments. The culture medium was replaced by a B-27-free MEM medium, and the cells were incubated for 30 minutes. Then, a solvent (dimethyl sulfoxide) and a test compound were added, and the system was incubated for 30 minutes (procedure 1). Then, 3 μM of ionomycin was added, and the mixture was incubated for 30 minutes (procedure 2). The culture medium was washed, and replaced by Neuro Basal medium containing B-27 supplement, and the system was cultured for 18 hours (procedure 3). In examining the effect of post-treatment, the solvent and the test compound were not added in procedure 1, but added 30 minutes after replacement of the medium in procedure 3.
# [4] = KP-102 total 0.16 mg/kg i.v., 72 hours after reperfusion, FIG. 1
smiles,measurement,setting,value
"C[C@H](NC(=O)[C@@H](Cc1ccc2ccccc2c1)NC(=O)[C@@H](C)N)C(=O)N[C@@H](Cc1c[nH]c2ccccc12)C(=O)N[C@H](Cc1ccccc1)C(=O)N[C@@H](CCCCN)C(N)=O [KP-102, D-alanyl-3-(2-naphthalenyl)-D-alanyl-L-alanyl-L-tryptophyl-D-phenylalanyl-L-lysineamide] (H-[dA][d2Nal]AW[dF]K-NH2)",influence on blood pressure,[1],does not influence
same,influence on heart rate,[1],does not influence
same,"cerebral infarct size, cortex",[2]; [4],effect of shrinking the infarct was observed
same,"cerebral infarct size, medulla",[2]; [4],effect of shrinking the infarct was observed
same,percent cerebral infarction volume for the entire cerebrum,"[2]; vs control group, KP-102 total 0.16 mg/kg i.v. infusion beginning 30 minutes after MCA occlusion, 72 hours after reperfusion, FIG. 1, P<0.05 Mann-Whitney",significantly smaller
same,percent edema,"[2]; vs control group, KP-102 total 0.16 mg/kg i.v., 72 hours after reperfusion, FIG. 2, no significant differences, P=0.087",tendency toward suppression
same,score of neurologic symptoms,"[2]; vs control group, KP-102 total 0.16 mg/kg i.v., after reperfusion, normal score 33 points, FIG. 3, P<0.05",significantly higher
same,"inhibition of cell death, compound applied after ionomycin treatment","[3]; applied 30 minutes after replacement of the ionomycin-treated culture medium, FIG. 4b",cell death inhibiting action was also confirmed
same,"inhibition of cell death induced by 3 μM of ionomycin, compound applied 30 minutes before ionomycin","[3]; concentrations of 0.01 to 1 μM, dose-dependent, FIG. 4a",inhibited cell death
"NCC(O)CNC(=O)[C@@H](Cc1ccc2ccccc2c1)NC(=O)CCN1C(=O)c2ccccc2CCc2ccccc21 (stereo partly drawn) [S-37555, N-[1(R)-(3-amino-2-hydroxy-propylcarbamoyl)-2-yl-ethyl]-3-(6-oxo-11,12-dihydro-6H-dibenzo[b,f]azocinn-5-yl)-propionamide]",inhibition of cell death induced by ionomycin at a single concentration,[3],clear action of inhibiting cell death
"CC(C)(C)C(=O)N1CCC[C@H]1C(=O)N[C@H](Cc1ccc2ccccc2c1)C(=O)NCC(O)CN (stereo partly drawn) [S-38855, N-(3-amino-2-hydroxypropyl)-2(R)-[1-(2,2-dimethylpropionyl)pyrrolidine-2(S)-carbonylamino]-3-naphthalen-2-yl-propionamide]",inhibition of cell death induced by ionomycin at a single concentration,[3],clear action of inhibiting cell death
"CCC(CC)C(=O)N1CCC[C@@H]1C(=O)N[C@@H](Cc1ccc2ccccc2c1)C(=O)NCC(O)CN (stereo partly drawn) [S-39100, N-(3-amino-2-hydroxypropyl)-2(S)-[1-(2-ethylbutyryl)pyrrolidine-2(R)-carbonylamino]-3-naphthalen-2-yl-propionamide]",inhibition of cell death induced by ionomycin at a single concentration,[3],clear action of inhibiting cell death
"Cc1[nH]c2ccccc2c1C[C@@H](NC(=O)[C@@H](N)Cc1c[nH]cn1)C(=O)N[C@@H](C)C(=O)N[C@@H](Cc1c[nH]c2ccccc12)C(=O)N[C@H](Cc1ccccc1)C(=O)N[C@@H](CCCCN)C(N)=O [hexarelin, L-histidyl-2-methyl-D-tryptophyl-L-alanyl-L-tryptophyl-D-phenylalanyl-L-lysineamide, reference compound] (H-H[dTrp(2-Me)]AW[dF]K-NH2)",inhibition of cell death induced by ionomycin at a single concentration,[3],clear action of inhibiting cell death
